Assay results reported in patent US7169815B2, “3-methoxybenzyl thiourea derivatives and improved lipid compositions containing same” (The United States of America as represented by the …, priority 2000, dated 2007).
In brackets after ≈: the same amount, converted by molar mass. Read-outs that look alike come from different tables or passages of the source.

Legend:
[1] = UVB and UVA molar absorptivities in chloroform; type: physicochemical; conditions: 0.01 mg/ml in chloroform
Procedure: The compounds synthesized in Example 3 were tested to determine their ability to absorb […] UVA light. UV spectra of quantitatively weighed and diluted samples (0.01 mg/ml) in chloroform were scanned from 244–450 nm at 240 nm/min on a Beckman DU 640 spectrophotometer (Beckman Coulter, Inc., Fullerton, Calif.). Amax in the 280–320 nm range was determined and converted to molar absorptivity for the UVB region, and Amax in the 320–400 nm range was determined and converted to molar absorptivity for the UVA region.

[2] = OSI test of jojoba oil mixed with additive; conditions: 110° C.
Text: (§1) A presently preferred method of determining oxidative stability of lipids and oils employs the Oxidative Stability Index (OSI), which determines the oxidative stability of an oil by passing air through a sample under stringent temperature control. (Firestone, Oxidative Stability Index (OSI): Official Methods of Recommended Practices of the American Oil Chemists' Society (AOCS), 4th Ed. American Oil Chemists Society, Champaign, Ill., AOCS Official Method Cd 12b-92, 1993.) In this method, a stream of air is passed through the oil sample, which aids in the rapid degradation of the triglyceride into volatile organic acids. The air stream flushes the volatile acids from the oil into a conductivity cell containing water where the acids are solubilized. These acids, once dissolved in the water solution, disassociate into ions, thus changing the conductivity of the water. Therefore, a continuous measure of the conductivity of the cell by computer will indicate when a rapid rise in the conductivity occurs that corresponds to the induction point, oxidative failure of the sample. The time to the induction point is the OSI time. […] Saturated fatty acid methyl ester (FAME) standards commercially available from Alltech Associates (Deerfield, Ill.) may be used to calibrate the OSI determinations.
(§2) OSI determinations may be performed on an oxidative stability instrument manufactured by Omnion (Rockland, Mass.) using the AOCS method described in the above-disclosed Firestone reference. Lipid or oil samples may be run at 110° C. and FAMEs may be tested at 90° C., with air flow set at 35 kPa with a resulting velocity of about 140 ml/min. A presently preferred method for determining OSI values is described by T. A. Isbell et al., “Oxidative Stability Index of Vegetable Oils in Binary Mixtures with Meadowfoam Oil,” Industrial Crops and Products 9, 115–123 (1999).
(§3) Unless otherwise stated, Oxidative Stability Index (OSI) values were determined on 5.00 ±0.05 g lipid or oil samples in triplicate according to AOCS Official Method Cd 12b-92 (AOCS, 1993) at 90° C., 110° C. and/or 130° C. on an oxidative stability instrument manufactured by Omnion (Rockland, Mass.). Details of the procedure have been published by Isbell et al., “Oxidative Stability Index of Vegetable Oils in Binary Mixtures with Meadowfoam Oil,” Ind. Crops Prod. 9, 115–123 (1999). When compounds of the present invention were added to the lipid or oil sample being tested, the compounds (0.1% to 1.0% by weight) were added to the test lipid or oil (20 g) and dissolved or dispersed at room temperature before triplicate 5.00 g samples of lipid or oil with an added compound of the invention were weighed into the OSI test tube. […]

[3] = OSI test of milkweed seed oil mixed with additive; conditions: 1.0% additive, 130° C.
Text: A presently preferred method of determining oxidative stability of lipids and oils employs the Oxidative Stability Index (OSI), which determines the oxidative stability of an oil by passing air through a sample under stringent temperature control. (Firestone, Oxidative Stability Index (OSI): Official Methods of Recommended Practices of the American Oil Chemists' Society (AOCS), 4th Ed. American Oil Chemists Society, Champaign, Ill., AOCS Official Method Cd 12b-92, 1993.) In this method, a stream of air is passed through the oil sample, which aids in the rapid degradation of the triglyceride into volatile organic acids. The air stream flushes the volatile acids from the oil into a conductivity cell containing water where the acids are solubilized. These acids, once dissolved in the water solution, disassociate into ions, thus changing the conductivity of the water. Therefore, a continuous measure of the conductivity of the cell by computer will indicate when a rapid rise in the conductivity occurs that corresponds to the induction point, oxidative failure of the sample. […]
Unless otherwise stated, Oxidative Stability Index (OSI) values were determined on 5.00 ±0.05 g lipid or oil samples in triplicate according to AOCS Official Method Cd 12b-92 (AOCS, 1993) at 90° C., 110° C. and/or 130° C. on an oxidative stability instrument manufactured by Omnion (Rockland, Mass.). […]

[4] = Behaviour on addition of water to DMSO solution (sample preparation); type: physicochemical; conditions: dissolved in 50 μl DMSO, water added to make 1 mg/ml
Procedure: Test compounds (1–2 mg) were originally made up at a concentration of 1 mg/ml in artificial seawater, except for water insoluble compounds, which were dissolved in 50 μl of dimethyl sulfoxide (DMSO) prior to adding enough water to make a 1 mg/ml solution. Serial dilutions were performed in 100 μl of seawater in triplicate in the wells of a 96-well microplate to give appropriate concentrations. Control wells for both water and DMSO were included with each experiment. A 100 μl solution of naupli (10–30) was added to each well, and the covered plate was incubated for 24 h at 27° C. The number of non-motile, and the total number of, naupli were counted in each well using a binocular microscope (10×). LC50 values were then calculated by Probit analysis (Finney, D. J., 1971, “Probit Analysis,” 3rd Ed.; University Press: Cambridge [Eng.]).

[5] = Solubility in refined meadowfoam seed oil (HPLC); type: physicochemical; conditions: oil or lipid, thermodynamic from solid, cooled to room temperature overnight
Procedure: Typical retention times were 7–9 min for the thioureas. Samples were weighed accurately (about 0.1 g) into 1.00 g of refined meadowfoam seed oil and heated to temperature (either 30° C. or 50° C.) for 4 h with occasional shaking. The samples were cooled to room temperature overnight, centrifuged and 0.3 g of the supernatant oil was removed and diluted with 1 ml CHCl3 for testing.

[6] = test system: Brine Shrimp (Artemia Salina); assay: in vivo; conditions: as Table 7 shows
Procedure: (§4) Brine shrimp eggs (Artemia salina) were obtained from Brine Shrimp Direct, Ogden, Utah and stored at 10° C. until used. Eggs (400 mg) were added to 1 l of deionized water containing 40 g of sea salts (Sigma Chemical Co., St. Louis, Mo.).
(§5) Serial dilutions were performed in 100 μl of seawater in triplicate in the wells of a 96-well microplate to give appropriate concentrations. Control wells for both water and DMSO were included with each experiment. […] The number of non-motile, and the total number of, naupli were counted in each well using a binocular microscope (10×).

[7] = in vivo; conditions: Artemia salina (brine shrimp), in vivo, other: exposure in seawater in microplate wells
Procedure: as §4, §5

[8] = OSI test of unrefined (crude) meadowfoam seed oil, alone or mixed with additive; conditions: 110° C.
Text: as §1, §2, §3

UVBMAX Molar Absorptivity ([1]; Amax in 280–320 nm): 5367
UVAMAX Molar Absorptivity ([1]; Amax in 320–400 nm): 0.0
behaviour upon the addition of water [4]: precipitated out of solution
solubility at 4 h ([5]; heated to 30° C. for 4 h, read-out: Solubility at 30° C.): 2480 µg/mL (≈ 7.84 mM)
solubility at 4 h ([5]; heated to 50° C. for 4 h, read-out: Solubility at 50° C.): 3520 µg/mL (≈ 11.1 mM)
Compound: COc1cccc(CNC(=S)NCc2cccc(OC)c2)c1 [1,3-di(3-methoxybenzyl) thiourea]
OSI Time ([2]; 0.1% additive): 64.2 h
improvement of OSI time compared to jojoba oil alone ([2]; 0.1% additive): 30%
OSI Time ([2]; 1% additive): 168 h
improvement of OSI time compared to jojoba oil alone ([2]; 1% additive): 241%
OSI Time [3]: 2.78 h
improvement of OSI time compared to milkweed oil alone [3]: 654%
toxicity against brine shrimp, in words [6]: very low
LC50 at 24 h [7]: > 1000 µg/mL
OSI Time ([8]; 0.1% additive): 76.4 h
improvement of OSI time compared to meadowfoam oil alone ([8]; 0.1% additive): 15%
OSI Time ([8]; 1% additive): 211 h
improvement of OSI time compared to meadowfoam oil alone ([8]; 1% additive): 218%
